Experimental data taken from US4687864A, “5-fluoro-3-oxa-prostacyclin compounds” (G. D. Searle & Co., priority 1985, dated 1987).

Assays:
[1] = system: ulcerogenic effect induced by certain non-steriodal and steroidal anti-inflammatory agents; settings: rats, concomitant oral administration; cited from earlier work
[2] = system: ADP-Induced platelet aggregation; test: Inhibition of ADP-induced platelet aggregation, in vitro (platelet rich plasma); format: cell-based; settings: Rattus norvegicus, compound preincubated 1 minute, read-out: Results (IC50 (Molar))
Description: Inhibition of ADP-Induced platelet aggregation, in vitro.
Aggregation was determined using a Payton Dual Channel Aggregation Module. A Riker-Denshi recorder was used fo recording the aggregation curves.
The addition of ADP to platelet-rich plasma induces platelet aggregation.
After the PRP fraction was removed, the remainder was spun at 900×g for 15 mins. to obtain platelet poor plasma (PPP) (1800 RPM in IEC PR 6000). The number of platelets per ml PRP is determined by counting a 50 μl aliquot of PRP in a Coutter ZBI counter and channelyzer Model C-1000.
PRP is diluted with PPP 1:2 to obtain a count of approx. 25000 on the screen or 10^9 platelets/ml PRP to evaluate the anti-aggregating agent. The module was standardized with an aliquot of PPP and that of diluted PRP.
The aggregating agent used is ADP prepared as follows:
Prostacyclin is used as the standard of antiaggregatory activity for determining the potency of compounds tested. A 10^2 M solution (to give a starting concentration of 10^-4 M when 4 μL is added to 400 μL PRP) is diluted serially to obtain solutions with final concentrations of 10^-6, 10^-7, 10^-8, 10^-9 M.
Determine the dose of ADP which on a standard curve would be on the linear portion and allow reversal of the aggregation curve.
Determine the PGI2 standard curve of percentage inhibition of aggregation. Use saline in control cuvette to compare the extent of inhibition by PGI2 are represented by the depth of the aggregation curve. Allow the PRP to preincubate for approximately one minute prior to the addition of prostacyclin and another minute with PGI2 prior to the addition of ADP.
The % inhibition is plotted against prostacyclin dose on semilog paper.
The test compound is added to PRP and preincubated for 1 minute prior to ADP administration.

[3] = physiological pH; cited from earlier work
platelet aggregation = settings: background, cited from earlier work

IC50 [2] [nM] | SMILES | ulcerogenic effect induced by anti-inflammatory agents [1] | other results
– | CCCCC[C@H](O)/C=C/[C@H]1[C@H](O)CC(=O)[C@@H]1C/C=C\CCCC(=O)O [PGE2] | inhibited | –
– | CCCCC[C@H](O)CC[C@H]1[C@H](O)CC(=O)[C@@H]1CCCCCCC(=O)O [13, 14-dihydro-PGE1] | inhibited | –
– | CCCCC[C@H](O)/C=C/[C@H]1[C@H](O)CC(=O)[C@@H]1CCCCCCC(=O)O [PGE1] | inhibited | –
1000 | CCCCC[C@H](O)/C=C/[C@@H]1[C@H]2C/C(=C/COCC(=O)OC(C)(C)C)O[C@H]2C[C@H]1O (relative stereo) [3-oxa prostacyclin Tert-butyl ester, 1,1-Dimethylethyl(3aS,3aα,6aα)[2-[hexahydro-5β-hydroxy-4α-(3S*-hydroxy-1E-octenyl)-2H-cyclopenta-[b]furan-2Z-ylidene]ethoxy]acetate] | – | –
4000 | CCCCC[C@H](O)/C=C/[C@@H]1[C@H]2C=C(C(F)COCC(=O)OC(C)(C)C)O[C@H]2C[C@H]1O (relative stereo) [1,1-Dimethylethyl(3aS,3aα,6aα)[2-fluoro-2-[4,5,6,6aα-tetrahyro-5β-hydroxy-4α-(3S*-hydroxy-1E-octenyl)-3aS,3aαH,-cyclopenta[b]furanyl]ethoxy]acetate] | – | –
6 | CCCCC[C@H](O)/C=C/[C@@H]1[C@H]2C/C(=C/CCCC(=O)O)O[C@H]2C[C@H]1O [Prostacyclin, (5Z)-9-deoxy-6,9α-epoxy-Δ^5 -PGF1] | – | half period of its activity [3]: only about several minutes; duration of antiplatelet aggregation effect (platelet aggregation): short lived; hypotensive effects (platelet aggregation): often affords unwanted hypotensive effects; doses required for platelet aggregation inhibiting action and antihypertensive action (platelet aggregation; selectivity of action): almost equal to each other
– | CC/C=C\C[C@H](O)/C=C/[C@H]1[C@H](O)CC(=O)[C@@H]1C/C=C\CCCC(=O)O [PGE3] | inhibited | –
